# Measured values taken from patent publication US20170121402A1, “ORAL COMPOSITION OF ANTI-TNF ALPHA ANTIBODIES” (Laboratoire Français du Fractionnement et des …, priority 2014, published 2017).
# Tested on: interleukin-8 (IL-8) secretion by Caco-2 cells
# Assay: Anti-inflammatory effect on the Caco-2 line: IL-8 secretion after IL-1 beta activation, ELISA
# Format: cell-based, human
# Details: differentiated Caco-2 cells (14 days), 24 h preculture with test agent, then 1 ng/ml IL-1 beta for 12 hours
# From the text: Caco-2 cells, a colon cancer cell line, are an established cell model of the human intestinal epithelium (Pinto et al., 1983, Biol. Cell, 47, 323-330). These cells secrete interleukin-8 (IL-8), which is one of the major interleukins in the pathogenesis of inflammatory bowel diseases, after activation by interleukin-1 beta (IL-1 beta).
# The inventors used the Caco-2 cell line as a model of epithelial cells, and evaluated the effect of compositions according to the invention on interleukin-8 (IL-8) secretion by these cells after activation by interleukin-1 beta (IL-1 beta).
# To that end, Caco-2 cells, deposited in 24well plates, were cultured for 14 days until the cells were confluent and in a stable differentiation state. On day 14, the cells were precultured in the presence of caprylic acid, transgenically-produced anti-TNF antibody (adalimumab), and a combination of the two. Twenty-four hours later, the cells were stimulated with 1 ng/ml IL-1 beta for 12 hours. IL-8 levels present in the culture supernatants were measured by ELISA.
substance,measurement,value
adalimumab [anti-TNF antibody],IL-8 levels present in the culture supernatants (IL-8 secretion),induces a decrease in IL-8 levels
